Where a name gives a salt, the structure may show the parent alone. Read-outs that look alike come from different tables or passages of the source.
Legend:
[1] = molecular target: T1, reuptake of dopamine (DA) in synaptosomes (Rattus norvegicus, UniProt P23977); experiment: Inhibition of dopamine (DA) reuptake in synaptosomes; type: biochemical
T1 construct: in synaptosomes as described in WO 97/16451; from tissue

[2] = molecular target: T2, reuptake of serotonine (5-HT) in synaptosomes (Rattus norvegicus, UniProt P31652); experiment: Inhibition of serotonine (5-HT) reuptake in synaptosomes; type: biochemical
T2 construct: in synaptosomes as described in WO 97/16451; from tissue
T2 sequence (P31652 whole entry): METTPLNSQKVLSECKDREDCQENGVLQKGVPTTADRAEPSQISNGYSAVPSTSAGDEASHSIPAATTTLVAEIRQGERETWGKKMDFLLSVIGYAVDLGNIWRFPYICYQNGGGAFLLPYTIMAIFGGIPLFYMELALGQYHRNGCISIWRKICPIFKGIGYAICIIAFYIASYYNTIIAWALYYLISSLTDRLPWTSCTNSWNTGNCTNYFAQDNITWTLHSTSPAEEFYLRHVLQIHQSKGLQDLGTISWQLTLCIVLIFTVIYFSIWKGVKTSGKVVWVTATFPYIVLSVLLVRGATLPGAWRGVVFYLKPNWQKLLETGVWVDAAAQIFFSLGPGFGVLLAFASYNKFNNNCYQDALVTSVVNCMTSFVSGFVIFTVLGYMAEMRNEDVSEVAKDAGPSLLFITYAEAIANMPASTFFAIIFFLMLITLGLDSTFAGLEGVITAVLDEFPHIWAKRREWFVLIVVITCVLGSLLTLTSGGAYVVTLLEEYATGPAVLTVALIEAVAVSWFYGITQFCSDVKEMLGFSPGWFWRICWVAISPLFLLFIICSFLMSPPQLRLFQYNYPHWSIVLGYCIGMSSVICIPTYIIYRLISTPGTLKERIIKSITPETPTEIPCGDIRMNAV

[3] = molecular target: T3, reuptake of noradrenaline (NA) in synaptosomes (Rattus norvegicus, UniProt Q9WTR4); experiment: Inhibition of noradrenaline (NA) reuptake in synaptosomes; type: biochemical
T3 construct: in synaptosomes as described in WO 97/16451; from tissue
T3 sequence (Q9WTR4 1-597): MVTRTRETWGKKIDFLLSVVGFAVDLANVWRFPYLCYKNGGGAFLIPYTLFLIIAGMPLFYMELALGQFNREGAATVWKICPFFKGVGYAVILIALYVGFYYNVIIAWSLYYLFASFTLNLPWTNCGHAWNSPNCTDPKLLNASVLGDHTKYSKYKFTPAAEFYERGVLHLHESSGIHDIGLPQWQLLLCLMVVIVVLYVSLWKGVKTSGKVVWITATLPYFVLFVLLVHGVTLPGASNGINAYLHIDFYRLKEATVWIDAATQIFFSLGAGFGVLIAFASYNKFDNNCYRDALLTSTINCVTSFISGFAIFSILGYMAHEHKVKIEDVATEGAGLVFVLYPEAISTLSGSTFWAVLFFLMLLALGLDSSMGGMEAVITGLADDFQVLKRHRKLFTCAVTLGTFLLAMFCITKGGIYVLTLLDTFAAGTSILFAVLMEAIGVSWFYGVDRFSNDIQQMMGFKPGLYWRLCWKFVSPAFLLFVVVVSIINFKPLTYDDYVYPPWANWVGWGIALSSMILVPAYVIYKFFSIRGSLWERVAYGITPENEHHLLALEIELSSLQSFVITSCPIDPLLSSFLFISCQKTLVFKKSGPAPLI

T1 sequence (P23977 whole entry): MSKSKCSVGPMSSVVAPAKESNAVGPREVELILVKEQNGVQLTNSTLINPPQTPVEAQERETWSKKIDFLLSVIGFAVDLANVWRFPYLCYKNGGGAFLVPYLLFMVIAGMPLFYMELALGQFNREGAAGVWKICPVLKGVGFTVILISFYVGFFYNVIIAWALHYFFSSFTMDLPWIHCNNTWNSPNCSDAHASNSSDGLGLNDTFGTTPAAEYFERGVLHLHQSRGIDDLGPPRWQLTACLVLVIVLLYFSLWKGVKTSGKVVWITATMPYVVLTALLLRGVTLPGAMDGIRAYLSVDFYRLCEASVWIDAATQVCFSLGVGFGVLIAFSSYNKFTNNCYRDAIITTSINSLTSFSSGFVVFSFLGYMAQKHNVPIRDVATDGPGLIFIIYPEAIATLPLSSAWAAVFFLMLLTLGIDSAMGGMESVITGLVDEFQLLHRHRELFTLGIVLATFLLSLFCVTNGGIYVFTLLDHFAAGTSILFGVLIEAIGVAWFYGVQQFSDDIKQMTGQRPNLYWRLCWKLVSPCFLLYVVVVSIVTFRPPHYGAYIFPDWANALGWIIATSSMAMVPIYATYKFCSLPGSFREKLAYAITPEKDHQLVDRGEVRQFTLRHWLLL

Row | Compound | melting point | IC50 [1] | IC50 [2] | IC50 [3] | also measured
1 | Clc1ccc(O[C@@H]2C[C@H]3C=C[C@@H](C2)N3)cc1Cl (as salt: hydrochloric acid salt) [1st compound of method A, exo-3-(3,4-Dichloro-phenoxy)-8-aza-bicyclo[3.2.1]oct-6-ene hydrochloric acid salt] | 200 °C (dec.) |  |  |  | 
2 | Clc1ccc(O[C@@H]2C[C@H]3C=C[C@@H](C2)N3)cc1Cl [1st compound of method A, exo-3-(3,4-Dichloro-phenoxy)-8-aza-bicyclo[3.2.1]oct-6-ene hydrochloric acid salt] |  | 220 nM | 2.5 nM | 27 nM | 
3 | COc1ccc2cc(O[C@@H]3C[C@H]4C=C[C@@H](C3)N4C)ccc2c1 [3rd compound of method B, exo-3-(6-Methoxy-naphthalen-2-yloxy)-8-methyl-8-aza-bicyclo[3.2.1]oct-6-ene free base] | 240 °C (dec.) |  |  |  | IC50 ([1]; 3H-DA, synaptosomes, read-out: DA-uptake IC50): 110 nM; IC50 ([2]; 3H-5-HT, synaptosomes, read-out: 5-HT-uptake IC50): 480 nM; IC50 ([3]; 3H-NA, synaptosomes, read-out: NA-uptake IC50): 170 nM
4 | Clc1ccc(O[C@@H]2C[C@H]3C=C[C@@H](C2)N3)cc1Br [2nd compound of method A, exo-3-(3-Bromo-4-chloro-phenoxy)-8-aza-bicyclo[3.2.1]oct-6-ene hydrochloric acid salt] |  | 170 nM | 21 nM | 110 nM | 
5 | Clc1ccc(O[C@@H]2C[C@H]3C=C[C@@H](C2)N3)cc1Br (as salt: hydrochloric acid salt) [2nd compound of method A, exo-3-(3-Bromo-4-chloro-phenoxy)-8-aza-bicyclo[3.2.1]oct-6-ene hydrochloric acid salt] | 240 to 243 °C |  |  |  | 

From patent US7638532B2, “3-aryloxy-8-aza-bicyclo[3.2.1]oct-6-ene derivatives and their use as monoamine neurotransmitter re-uptake inhibitors” (NeuroSearch A/S, priority 2005, dated 2009)
